Measurements reported in ChEMBL document CHEMBL4477227, “Synthesis and antibacterial evaluation of macrocyclic diarylheptanoid derivatives” (Bioorg Med Chem Lett, 2016).
≈ marks a conversion by molar mass, not a printed value.

Key:
[1] = system: Mycobacterium tuberculosis; experiment: Antitubercular activity against Mycobacterium tuberculosis H37Rv by microbroth dilution method; type: functional; conditions: Mycobacterium tuberculosis, H37Rv; read-out: MIC
Bacillus anthracis = experiment: Antibacterial activity against Bacillus anthracis Sterne 34F2 by microbroth dilution method; type: functional; conditions: Bacillus anthracis, Sterne 34F2; read-out: MIC
Enterococcus faecalis = experiment: Antibacterial activity against Enterococcus faecalis ATCC 33186 by microbroth dilution method; type: functional; conditions: Enterococcus faecalis, ATCC 33186; read-out: MIC
Staphylococcus aureus [2] = experiment: Antibacterial activity against methicillin-sensitive Staphylococcus aureus ATCC 29213 by microbroth dilution method; type: functional; conditions: Staphylococcus aureus, ATCC 29213; read-out: MIC
Staphylococcus aureus [3] = experiment: Antibacterial activity against methicillin-resistant Staphylococcus aureus NRS70 by microbroth dilution method; type: functional; conditions: Staphylococcus aureus, NRS70; read-out: MIC
Streptococcus pyogenes = experiment: Antibacterial activity against Streptococcus pyogenes ATCC 700294 by microbroth dilution method; type: functional; conditions: Streptococcus pyogenes, ATCC 700294; read-out: MIC
Streptococcus pneumoniae = experiment: Antibacterial activity against Streptococcus pneumoniae R6 by microbroth dilution method; type: functional; conditions: Streptococcus pneumoniae, R6; read-out: MIC
Bacillus subtilis = experiment: Antibacterial activity against Bacillus subtilis ATCC 23857 by microbroth dilution method; type: functional; conditions: Bacillus subtilis, ATCC 23857; read-out: MIC
Acinetobacter baumannii = experiment: Antibacterial activity against Acinetobacter baumannii ATCC 19606 by microbroth dilution method; type: functional, ATCC 19606 = CIP 70.34 = JCM 6841; conditions: Acinetobacter baumannii, ATCC 19606 = CIP 70.34 = JCM 6841; read-out: MIC
Escherichia coli [4] = experiment: Antibacterial activity against Escherichia coli K-12 by microbroth dilution method; type: functional
Escherichia coli [5] = experiment: Antibacterial activity against Escherichia coli harboring TolC deletion mutant by microbroth dilution method; type: functional; conditions: Escherichia coli; read-out: MIC
Burkholderia cepacia = experiment: Antibacterial activity against Burkholderia cepacia ATCC 25416 by microbroth dilution method; type: functional
Klebsiella pneumoniae = experiment: Antibacterial activity against Klebsiella pneumoniae ATCC 33495 by microbroth dilution method; type: functional
Proteus mirabilis = experiment: Antibacterial activity against Proteus mirabilis ATCC 25933 by microbroth dilution method; type: functional
Proteus vulgaris = experiment: Antibacterial activity against Proteus vulgaris ATCC 33420 by microbroth dilution method; type: functional
Pseudomonas aeruginosa = experiment: Antibacterial activity against Pseudomonas aeruginosa PAO1 by microbroth dilution method; type: functional

SMILES: COc1ccc2cc1Oc1cc(ccc1OC)CCC(NC(=O)NCCc1ccccc1)CCCC2 (stereo not given)
- MIC [1]: > 100 µg/mL
- MIC (Bacillus anthracis): > 100 µg/mL
- MIC (Enterococcus faecalis): > 100 µg/mL
- MIC (Staphylococcus aureus [2]): > 100 µg/mL
- MIC (Staphylococcus aureus [3]): > 100 µg/mL
- MIC (Streptococcus pyogenes): > 100 µg/mL
- MIC (Streptococcus pneumoniae): > 100 µg/mL
- MIC (Bacillus subtilis): > 100 µg/mL
- MIC (Acinetobacter baumannii): > 100 µg/mL
- MIC (Escherichia coli [4]): > 100 µg/mL
- MIC (Escherichia coli [5]): > 100 µg/mL
- MIC (Burkholderia cepacia): > 100 µg/mL
- MIC (Klebsiella pneumoniae): > 100 µg/mL
- MIC (Proteus mirabilis): > 100 µg/mL
- MIC (Proteus vulgaris): > 100 µg/mL
- MIC (Pseudomonas aeruginosa): > 100 µg/mL

SMILES: COc1ccc2cc1Oc1cc(ccc1OC)CCC(NCCc1ccccn1)CCCC2 (stereo not given)
- MIC [1]: 100 µg/mL (≈ 224 µM)
- MIC (Bacillus anthracis): > 100 µg/mL
- MIC (Enterococcus faecalis): > 100 µg/mL
- MIC (Staphylococcus aureus [2]): > 100 µg/mL
- MIC (Staphylococcus aureus [3]): > 100 µg/mL
- MIC (Streptococcus pyogenes): > 100 µg/mL
- MIC (Streptococcus pneumoniae): 100 µg/mL (≈ 224 µM)
- MIC (Bacillus subtilis): 100 µg/mL (≈ 224 µM)
- MIC (Acinetobacter baumannii): > 100 µg/mL
- MIC (Escherichia coli [4]): > 100 µg/mL
- MIC (Escherichia coli [5]): 100 µg/mL (≈ 224 µM)
- MIC (Burkholderia cepacia): > 100 µg/mL
- MIC (Klebsiella pneumoniae): > 100 µg/mL
- MIC (Proteus mirabilis): > 100 µg/mL
- MIC (Proteus vulgaris): > 100 µg/mL
- MIC (Pseudomonas aeruginosa): > 100 µg/mL

SMILES: COc1ccc(CCNC2CCCCc3ccc(OC)c(c3)Oc3cc(ccc3OC)CC2)cc1OC (stereo not given)
- MIC [1]: 100 µg/mL (≈ 198 µM)
- MIC (Bacillus anthracis): > 100 µg/mL
- MIC (Enterococcus faecalis): > 100 µg/mL
- MIC (Staphylococcus aureus [2]): > 100 µg/mL
- MIC (Staphylococcus aureus [3]): > 100 µg/mL
- MIC (Streptococcus pyogenes): > 100 µg/mL
- MIC (Streptococcus pneumoniae): > 100 µg/mL
- MIC (Bacillus subtilis): > 100 µg/mL
- MIC (Acinetobacter baumannii): > 100 µg/mL
- MIC (Escherichia coli [4]): > 100 µg/mL
- MIC (Escherichia coli [5]): > 100 µg/mL
- MIC (Burkholderia cepacia): > 100 µg/mL
- MIC (Klebsiella pneumoniae): > 100 µg/mL
- MIC (Proteus mirabilis): > 100 µg/mL
- MIC (Proteus vulgaris): > 100 µg/mL
- MIC (Pseudomonas aeruginosa): > 100 µg/mL

SMILES: COc1ccc2cc1Oc1cc(ccc1OC)CCC(NCCCCc1ccccc1)CCCC2 (stereo not given)
- MIC [1]: 25 µg/mL (≈ 52.8 µM)
- MIC (Bacillus anthracis): 50 µg/mL (≈ 106 µM)
- MIC (Enterococcus faecalis): 25 µg/mL (≈ 52.8 µM)
- MIC (Staphylococcus aureus [2]): 25 µg/mL (≈ 52.8 µM)
- MIC (Staphylococcus aureus [3]): 25 µg/mL (≈ 52.8 µM)
- MIC (Streptococcus pyogenes): 12.5 µg/mL (≈ 26.4 µM)
- MIC (Streptococcus pneumoniae): 50 µg/mL (≈ 106 µM)
- MIC (Bacillus subtilis): 12.5 µg/mL (≈ 26.4 µM)
- MIC (Acinetobacter baumannii): 100 µg/mL (≈ 211 µM)
- MIC (Escherichia coli [4]): > 100 µg/mL
- MIC (Escherichia coli [5]): 12.5 µg/mL (≈ 26.4 µM)
- MIC (Burkholderia cepacia): > 100 µg/mL
- MIC (Klebsiella pneumoniae): > 100 µg/mL
- MIC (Proteus mirabilis): > 100 µg/mL
- MIC (Proteus vulgaris): > 100 µg/mL
- MIC (Pseudomonas aeruginosa): > 100 µg/mL

SMILES: COc1ccc2cc1Oc1cc(ccc1OC)CCC(NCCc1ccc3c(c1)OCO3)CCCC2 (stereo not given)
- MIC [1]: 25 µg/mL (≈ 51.1 µM)
- MIC (Bacillus anthracis): 50 µg/mL (≈ 102 µM)
- MIC (Enterococcus faecalis): 50 µg/mL (≈ 102 µM)
- MIC (Staphylococcus aureus [2]): 50 µg/mL (≈ 102 µM)
- MIC (Staphylococcus aureus [3]): 25 µg/mL (≈ 51.1 µM)
- MIC (Streptococcus pyogenes): 12.5 µg/mL (≈ 25.5 µM)
- MIC (Streptococcus pneumoniae): 50 µg/mL (≈ 102 µM)
- MIC (Bacillus subtilis): 12.5 µg/mL (≈ 25.5 µM)
- MIC (Acinetobacter baumannii): > 100 µg/mL
- MIC (Escherichia coli [4]): > 100 µg/mL
- MIC (Escherichia coli [5]): 12.5 µg/mL (≈ 25.5 µM)
- MIC (Burkholderia cepacia): > 100 µg/mL
- MIC (Klebsiella pneumoniae): > 100 µg/mL
- MIC (Proteus mirabilis): > 100 µg/mL
- MIC (Proteus vulgaris): > 100 µg/mL
- MIC (Pseudomonas aeruginosa): > 100 µg/mL

SMILES: COc1ccc2cc1Oc1cc(ccc1OC)CCC(NC(=O)/C=C/c1ccc(F)cc1)CCCC2 (stereo not given)
- MIC [1]: > 100 µg/mL
- MIC (Bacillus anthracis): > 100 µg/mL
- MIC (Enterococcus faecalis): > 100 µg/mL
- MIC (Staphylococcus aureus [2]): > 100 µg/mL
- MIC (Staphylococcus aureus [3]): > 100 µg/mL
- MIC (Streptococcus pyogenes): > 100 µg/mL
- MIC (Streptococcus pneumoniae): > 100 µg/mL
- MIC (Bacillus subtilis): > 100 µg/mL
- MIC (Acinetobacter baumannii): > 100 µg/mL
- MIC (Escherichia coli [4]): > 100 µg/mL
- MIC (Escherichia coli [5]): > 100 µg/mL
- MIC (Burkholderia cepacia): > 100 µg/mL
- MIC (Klebsiella pneumoniae): > 100 µg/mL
- MIC (Proteus mirabilis): > 100 µg/mL
- MIC (Proteus vulgaris): > 100 µg/mL
- MIC (Pseudomonas aeruginosa): > 100 µg/mL

SMILES: COc1ccc2cc1Oc1cc(ccc1OC)CCC(OC(C)=O)CCCC2 (stereo not given)
- MIC [1]: > 100 µg/mL
- MIC (Bacillus anthracis): > 100 µg/mL
- MIC (Enterococcus faecalis): > 100 µg/mL
- MIC (Staphylococcus aureus [2]): > 100 µg/mL
- MIC (Staphylococcus aureus [3]): > 100 µg/mL
- MIC (Streptococcus pyogenes): > 100 µg/mL
- MIC (Streptococcus pneumoniae): > 100 µg/mL
- MIC (Bacillus subtilis): > 100 µg/mL
- MIC (Acinetobacter baumannii): > 100 µg/mL
- MIC (Escherichia coli [4]): > 100 µg/mL
- MIC (Escherichia coli [5]): 12.5 µg/mL (≈ 32.5 µM)
- MIC (Burkholderia cepacia): > 100 µg/mL
- MIC (Klebsiella pneumoniae): > 100 µg/mL
- MIC (Proteus mirabilis): > 100 µg/mL
- MIC (Proteus vulgaris): > 100 µg/mL
- MIC (Pseudomonas aeruginosa): > 100 µg/mL

SMILES: COc1ccc2cc1Oc1cc(ccc1OC)CCC(NCCc1cccc(F)c1)CCCC2 (stereo not given)
- MIC [1]: 25 µg/mL (≈ 53.9 µM)
- MIC (Bacillus anthracis): 50 µg/mL (≈ 108 µM)
- MIC (Enterococcus faecalis): 25 µg/mL (≈ 53.9 µM)
- MIC (Staphylococcus aureus [2]): 50 µg/mL (≈ 108 µM)
- MIC (Staphylococcus aureus [3]): 25 µg/mL (≈ 53.9 µM)
- MIC (Streptococcus pyogenes): 50 µg/mL (≈ 108 µM)
- MIC (Streptococcus pneumoniae): 50 µg/mL (≈ 108 µM)
- MIC (Bacillus subtilis): 12.5 µg/mL (≈ 27 µM)
- MIC (Acinetobacter baumannii): 50 µg/mL (≈ 108 µM)
- MIC (Escherichia coli [4]): > 100 µg/mL
- MIC (Escherichia coli [5]): 25 µg/mL (≈ 53.9 µM)
- MIC (Burkholderia cepacia): > 100 µg/mL
- MIC (Klebsiella pneumoniae): > 100 µg/mL
- MIC (Proteus mirabilis): > 100 µg/mL
- MIC (Proteus vulgaris): > 100 µg/mL
- MIC (Pseudomonas aeruginosa): > 100 µg/mL

SMILES: COc1ccc2cc1Oc1cc(ccc1OC)CCC(OC(=O)NCCc1ccccc1)CCCC2 (stereo not given)
- MIC [1]: > 100 µg/mL
- MIC (Bacillus anthracis): > 100 µg/mL
- MIC (Enterococcus faecalis): > 100 µg/mL
- MIC (Staphylococcus aureus [2]): > 100 µg/mL
- MIC (Staphylococcus aureus [3]): > 100 µg/mL
- MIC (Streptococcus pyogenes): > 100 µg/mL
- MIC (Streptococcus pneumoniae): > 100 µg/mL
- MIC (Bacillus subtilis): > 100 µg/mL
- MIC (Acinetobacter baumannii): > 100 µg/mL
- MIC (Escherichia coli [4]): > 100 µg/mL
- MIC (Escherichia coli [5]): > 100 µg/mL
- MIC (Burkholderia cepacia): > 100 µg/mL
- MIC (Klebsiella pneumoniae): > 100 µg/mL
- MIC (Proteus mirabilis): > 100 µg/mL
- MIC (Proteus vulgaris): > 100 µg/mL
- MIC (Pseudomonas aeruginosa): > 100 µg/mL

SMILES: CCN(CC)C1CCCCc2ccc(OC)c(c2)Oc2cc(ccc2OC)CC1 (stereo not given)
- MIC [1]: 100 µg/mL (≈ 252 µM)
- MIC (Bacillus anthracis): > 100 µg/mL
- MIC (Enterococcus faecalis): > 100 µg/mL
- MIC (Staphylococcus aureus [2]): > 100 µg/mL
- MIC (Staphylococcus aureus [3]): > 100 µg/mL
- MIC (Streptococcus pyogenes): > 100 µg/mL
- MIC (Streptococcus pneumoniae): > 100 µg/mL
- MIC (Bacillus subtilis): > 100 µg/mL
- MIC (Acinetobacter baumannii): > 100 µg/mL
- MIC (Escherichia coli [4]): > 100 µg/mL
- MIC (Escherichia coli [5]): > 100 µg/mL
- MIC (Burkholderia cepacia): > 100 µg/mL
- MIC (Klebsiella pneumoniae): > 100 µg/mL
- MIC (Proteus mirabilis): > 100 µg/mL
- MIC (Proteus vulgaris): > 100 µg/mL
- MIC (Pseudomonas aeruginosa): > 100 µg/mL
